Measurements reported in article PMC9736291 (International Journal of Molecular Sciences, 2022).
Where two headings read alike, the source gives them in different places.

Tests used:
in vitro [1] = conditions: both, human, brain homogenate
[2] = biological target: human MDR1 (P-glycoprotein, ABCB1) (Homo sapiens, UniProt P08183); test: in vitro; conditions: dog; for Papp A→B: MDCK-MDR1, Papp A–B; for Papp B→A: MDCK-MDR1, Papp B–A
human MDR1 [3] = biological target: T1, human MDR1 (Homo sapiens, UniProt P08183); conditions: dog, MDCK-MDR1
in vitro [4] = conditions: guinea pig, brain homogenate
[5] = in vivo, iv; cited from earlier work
[6] = in vivo, po; cited from earlier work
ReN VM cells [7] = conditions: cited from earlier work
ReN VM cells [8] = conditions: human
in vitro [9] = conditions: Atp1a1^S/S (gene-edited), mouse, brain homogenate
in vivo = conditions: Atp1a1^S/S (gene-edited), mouse
in vitro [10] = conditions: guinea pig, plasma
[11] = Atp1a1^S/S (gene-edited), mouse, in vivo; for Abrain / Cbrain (mean total brain concentration) / Cu,brain (unbound brain concentration): 0.6 mg/kg
PrP^C [12] = type: cell-based, human; conditions: ReN VM ATP1A1^r/r cells whose ATP1A1 does not bind CGs
PrP^C [13] = type: cell-based, human; conditions: differentiated T98G cells
PrP^C [14] = type: cell-based, human
HeLa cells = conditions: cited from earlier work
[15] = cited from earlier work
human MDR1 [16] = biological target: T1, human MDR1; set-up: host or cells: MDCKII (canine kidney) cells, canine MDR1 deleted, human MDR1 gene inserted; method as in PMID 22906709, PMID 15620875; conditions: published values; cited from earlier work

Sequence of human MDR1 (P-glycoprotein, ABCB1) (P08183 whole entry): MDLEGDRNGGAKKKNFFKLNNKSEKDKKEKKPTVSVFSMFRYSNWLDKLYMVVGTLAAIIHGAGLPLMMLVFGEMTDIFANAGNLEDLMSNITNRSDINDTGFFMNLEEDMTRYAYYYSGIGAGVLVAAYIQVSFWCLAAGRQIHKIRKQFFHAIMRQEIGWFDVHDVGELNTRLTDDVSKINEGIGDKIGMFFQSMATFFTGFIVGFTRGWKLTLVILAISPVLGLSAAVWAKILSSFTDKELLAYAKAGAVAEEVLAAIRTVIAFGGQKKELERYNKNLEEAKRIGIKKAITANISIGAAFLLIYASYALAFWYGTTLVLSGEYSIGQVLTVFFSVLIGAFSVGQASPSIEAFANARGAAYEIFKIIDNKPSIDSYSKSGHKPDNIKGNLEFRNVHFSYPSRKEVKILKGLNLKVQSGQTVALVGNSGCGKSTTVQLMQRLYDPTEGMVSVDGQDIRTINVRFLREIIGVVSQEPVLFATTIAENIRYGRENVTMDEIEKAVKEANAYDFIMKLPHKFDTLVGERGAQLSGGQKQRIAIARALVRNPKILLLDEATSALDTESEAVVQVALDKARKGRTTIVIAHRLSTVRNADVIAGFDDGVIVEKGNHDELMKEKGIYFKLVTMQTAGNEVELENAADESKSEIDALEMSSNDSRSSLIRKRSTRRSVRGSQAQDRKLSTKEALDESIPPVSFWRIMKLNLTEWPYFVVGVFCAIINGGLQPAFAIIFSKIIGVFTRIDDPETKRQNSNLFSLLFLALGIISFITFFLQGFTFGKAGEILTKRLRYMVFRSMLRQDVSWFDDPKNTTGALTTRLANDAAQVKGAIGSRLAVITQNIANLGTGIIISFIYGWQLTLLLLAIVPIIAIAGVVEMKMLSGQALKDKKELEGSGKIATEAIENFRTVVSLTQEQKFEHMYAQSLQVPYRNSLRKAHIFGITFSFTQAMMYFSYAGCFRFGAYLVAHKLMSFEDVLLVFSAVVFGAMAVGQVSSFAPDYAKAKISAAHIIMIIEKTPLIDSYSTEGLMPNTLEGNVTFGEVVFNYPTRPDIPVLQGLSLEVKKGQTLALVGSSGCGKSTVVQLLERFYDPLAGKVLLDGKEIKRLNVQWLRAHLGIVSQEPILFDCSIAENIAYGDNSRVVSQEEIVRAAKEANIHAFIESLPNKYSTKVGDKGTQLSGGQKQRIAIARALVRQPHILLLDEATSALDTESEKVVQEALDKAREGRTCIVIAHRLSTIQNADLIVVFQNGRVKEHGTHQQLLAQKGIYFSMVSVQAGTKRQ
T1 sequence (P08183 whole entry): as above

Structure (SMILES)	fraction unbound (in vitro [1])	Papp A→B [2]	Papp B→A [2]	estimated total brain concentration attainable in human brains	Papp B–A (human MDR1 [3])	fraction unbound (in vitro [4])	toxicity threshold (concentration at which all three cellular health indicators dropped to 75% of untreated) (ReN VM cells [8])	fraction unbound (in vitro [9])	Kp uu (in vivo)	fraction unbound (in vitro [10])	Vu,brain [11]	Abrain ([11]; sc)	Cbrain (mean total brain concentration) ([11]; sc)	Cu,brain (unbound brain concentration) ([11]; sc)	further results
CO[C@H]1C[C@H](O[C@H]2CC[C@@]3(C)[C@H](CC[C@@H]4[C@@H]3CC[C@]3(C)[C@@H](C5=CC(=O)OC5)[C@@H](OC(C)=O)C[C@]43O)C2)O[C@@H](C)[C@@H]1O [oleandrin, reference compound]	0.316	7.06 ×10⁻⁶ cm/s	146 ×10⁻⁶ cm/s	≤ 18 nM	145.79	0.219	2.7 nM	0.24	0.27	0.219	3.98 mL/g brain	10.58 ng/g brain	19.23 nM	4.61 nM	cerebrum levels relative to plasma levels [5]: 6 fold; plasma levels [6]: 3 nM; concentrations at which toxic (ReN VM cells [7]): exceeding 4 nM
COC1CC(OC2CCC3(C)C(CCC4C3CCC3(C)C(C5=CC(=O)OC5)C(OC(C)=O)CC43O)C2)OC(C)C1=O (centres unmarked) [KDC203, 4′-dehydro-oleandrin]	0.395	11.6 ×10⁻⁶ cm/s	41.9 ×10⁻⁶ cm/s	27 nM	70.60	0.294	46 nM	0.33	0.44	0.359	2.90 mL/g brain	16.75 ng/g brain	30.46 nM	10.05 nM	reduction in PrP^C levels (PrP^C [12]): no KDC203-mediated reduction in PrP^C levels was observed; reduction in PrP^C levels (PrP^C [13]): recapitulate the KDC203-dependent reduction in PrP^C levels; maximum reduction in steady-state PrP^C levels (3F4-reactive signals) (PrP^C [14]): 84%; estimated unbound concentration attainable in human brains: ~10 nM; Papp A–B (human MDR1 [3]): 7.24; reduction of extrusion on addition of Zosuquidar (human MDR1 [3]): more than 50%; concentrations at which cytotoxicity observed (ReN VM cells [8]): > 40 nM; IC50 (HeLa cells): 46 nM; oral effectiveness relative to oleandrin (lethal doses oral versus intravenous), higher by ([15]; cats): approximately 20%; oral toxicity relative to oleandrin ([15]; in vivo, po): almost twofold lower; brain levels relative to heart levels ([11]; sc): 3.5 fold; total brain concentration of KDC203 relative to oleandrin ([11]; sc): 1.5 fold
C[C@H]1O[C@@H](O[C@H]2[C@@H](O)C[C@H](O[C@H]3[C@@H](O)C[C@H](O[C@H]4CC[C@@]5(C)[C@H](CC[C@@H]6[C@@H]5C[C@@H](O)[C@]5(C)[C@@H](C7=CC(=O)OC7)CC[C@]65O)C4)O[C@@H]3C)O[C@@H]2C)C[C@H](O)[C@@H]1O [digoxin]															PappA-B, published value (human MDR1 [16]): 0.5 ×10⁻⁶ cm/s
